Key:
panel of 442 kinases [1] = target: T1, panel of 442 kinases (Homo sapiens, UniProt Q09013); format: binding; conditions: Compound Concentration 10 µM
T1 construct: purchased KINOMEscan
T1 sequence (Q09013 1-629): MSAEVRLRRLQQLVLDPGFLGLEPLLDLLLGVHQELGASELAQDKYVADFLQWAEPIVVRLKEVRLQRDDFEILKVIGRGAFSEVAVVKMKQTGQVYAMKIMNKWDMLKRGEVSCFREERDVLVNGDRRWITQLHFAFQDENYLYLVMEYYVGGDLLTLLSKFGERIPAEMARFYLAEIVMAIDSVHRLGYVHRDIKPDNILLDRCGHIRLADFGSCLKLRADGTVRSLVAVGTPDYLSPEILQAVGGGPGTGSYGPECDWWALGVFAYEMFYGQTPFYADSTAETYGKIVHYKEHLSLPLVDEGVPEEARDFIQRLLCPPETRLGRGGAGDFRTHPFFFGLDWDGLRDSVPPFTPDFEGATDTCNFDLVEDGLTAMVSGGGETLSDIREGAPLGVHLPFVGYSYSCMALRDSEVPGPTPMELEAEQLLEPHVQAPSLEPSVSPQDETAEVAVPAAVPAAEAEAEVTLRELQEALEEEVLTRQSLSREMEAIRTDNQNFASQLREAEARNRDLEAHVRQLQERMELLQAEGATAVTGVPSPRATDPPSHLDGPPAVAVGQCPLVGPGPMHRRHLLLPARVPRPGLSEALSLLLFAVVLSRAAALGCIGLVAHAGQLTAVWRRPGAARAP
Excerpt: (§1) We assessed the selectivity of members of this scaffold using the KINOMEscan methodology across a near comprehensive panel of 442 kinases [[18,27]].

panel of 442 kinases [2] = target: T2, panel of 442 kinases (Homo sapiens, UniProt P35968); format: binding; conditions: kinase VEGFR2; compound concentration 10 µM
T2 construct: purchased KINOMEscan
T2 sequence (P35968 20-1356): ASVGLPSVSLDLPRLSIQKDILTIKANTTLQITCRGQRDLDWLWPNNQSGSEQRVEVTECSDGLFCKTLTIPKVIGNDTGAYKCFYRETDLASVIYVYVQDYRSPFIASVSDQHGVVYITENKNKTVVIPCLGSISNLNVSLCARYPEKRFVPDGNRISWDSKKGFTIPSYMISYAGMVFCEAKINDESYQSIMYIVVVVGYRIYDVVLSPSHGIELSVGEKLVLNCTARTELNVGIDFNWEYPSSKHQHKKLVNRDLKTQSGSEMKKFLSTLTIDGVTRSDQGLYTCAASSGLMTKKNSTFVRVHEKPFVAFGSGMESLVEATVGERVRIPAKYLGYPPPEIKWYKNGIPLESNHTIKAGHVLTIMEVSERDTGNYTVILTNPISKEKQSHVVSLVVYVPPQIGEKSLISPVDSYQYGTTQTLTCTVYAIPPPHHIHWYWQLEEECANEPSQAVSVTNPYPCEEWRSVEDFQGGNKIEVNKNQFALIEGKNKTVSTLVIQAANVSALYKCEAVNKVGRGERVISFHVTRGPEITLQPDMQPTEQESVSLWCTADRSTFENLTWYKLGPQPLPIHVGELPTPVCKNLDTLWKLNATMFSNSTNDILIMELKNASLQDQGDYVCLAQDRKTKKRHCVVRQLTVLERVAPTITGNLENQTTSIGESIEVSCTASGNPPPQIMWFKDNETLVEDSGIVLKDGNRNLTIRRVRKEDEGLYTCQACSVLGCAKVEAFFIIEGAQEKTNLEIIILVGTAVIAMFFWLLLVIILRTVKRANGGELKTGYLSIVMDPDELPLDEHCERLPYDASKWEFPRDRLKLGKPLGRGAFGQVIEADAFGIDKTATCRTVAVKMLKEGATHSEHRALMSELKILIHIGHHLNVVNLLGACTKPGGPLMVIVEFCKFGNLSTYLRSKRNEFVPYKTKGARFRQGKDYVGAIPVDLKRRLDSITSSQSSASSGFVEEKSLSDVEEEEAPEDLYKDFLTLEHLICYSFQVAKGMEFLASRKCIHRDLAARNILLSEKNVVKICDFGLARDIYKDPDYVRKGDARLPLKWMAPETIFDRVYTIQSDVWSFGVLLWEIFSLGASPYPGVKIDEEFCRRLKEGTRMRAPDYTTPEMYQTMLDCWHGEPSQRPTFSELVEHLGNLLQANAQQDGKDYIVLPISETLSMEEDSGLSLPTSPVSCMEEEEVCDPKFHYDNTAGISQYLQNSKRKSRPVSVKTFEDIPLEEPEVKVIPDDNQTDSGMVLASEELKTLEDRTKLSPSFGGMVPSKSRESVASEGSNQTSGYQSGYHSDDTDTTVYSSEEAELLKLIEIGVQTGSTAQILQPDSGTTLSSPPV
Excerpt: as §1

| SMILES | KINOMEscan: DMPK (panel of 442 kinases [1]) | % Ctrl, VEGFR2 (panel of 442 kinases [2]) [% Ctrl] |
| --- | --- | --- |
| COc1cc(C(=O)N2CCC(N3CCN(C)CC3)CC2)ccc1Nc1ncc2c(n1)N(C)c1ccccc1C(=O)N2C [15 (LRRK2-IN-1)] | 100 | 84 |
| COc1cc(C(=O)N2CCC(N3CCN(C)CC3)CC2)ccc1Nc1ncc2c(n1)N1CCc3cccc(c31)C(=O)N2C [Compound 24] | 85 | 100 |
| COc1cc(C(=O)N2CCC(N3CCN(C)CC3)CC2)ccc1Nc1ncc2c(n1)N(C1CCCC1)c1ccccc1C(=O)N2C [Compound 25, 11-cyclopentyl-2-((2-methoxy-4-(4-(4-methylpiperazin-1-yl)piperidine-1-carbonyl)phenyl)amino)-5-methyl-5H-benzo[e]pyrimido[5,4-b][1,4]diazepin-6(11H)-one] | 96 | 100 |
| CCOc1cc(C(=O)N2CCC(N3CCN(C)CC3)CC2)ccc1Nc1ncc2c(n1)N(C1CCCC1)c1ccccc1C(=O)N2C [Compound 26] | 100 | 100 |

— article PMC3914206
